SMILES strings stand for the structures.

Holding throughout (type): functional
The subject of one experiment is HL-60. Nature of the experiment: Cytotoxicity against human HL60 cells assessed as cell viability at 10 nM in presence of 100 ng/ml cisplatin incubated for 72 hrs by WST1 dye based assay relative to control.
For experiment [1], the system named is K562. Nature of the experiment: Cytotoxicity against human K562 cells assessed as cell viability at 10 nM in presence of 10 ng/ml cisplatin incubated for 72 hrs by WST1 dye based assay relative to control.
Experiment [2] concerns K562. Nature of the experiment: Cytotoxicity against human K562 cells assessed as cell viability at 0.1 nM in presence of 100 ng/ml cisplatin incubated for 72 hrs by WST1 dye based assay relative to control.
The subject of experiment [3] is K562. The experiment in a line: Cytotoxicity against human K562 cells assessed as cell viability at 100 nM in presence of 100 nM taxol incubated for 72 hrs by WST1 dye based assay relative to control. The conditions noted are these: K562, 72 h, read-out: Activity.

With `CC[C@H](N)C(=O)N[C@@H]1C(=O)N2[C@@H](CC[C@@H]1CO)CC[C@H]2C(=O)NC(c1ccccc1)c1ccccc1.O=C(O)C(F)(F)F`, the Activity stood at 43% in the experiment with HL-60 and 48% with K562 [1].
In the case of `CC[C@H](N)C(=O)N[C@@H]1C(=O)N2[C@@H](CC[C@@H]1Cn1cc(CO[C@H](C)[C@H](NC(=O)[C@H](C)NC)C(=O)N3CCC[C@H]3Cn3nnnc3Sc3ccccc3)nn1)CC[C@H]2C(=O)NC(c1ccccc1)c1ccccc1.O=C(O)C(F)(F)F`, in the experiment with K562 [2], the Activity worked out at 30%. Moreover, the viability at 0.1 µM in the experiment on K562 [3] came to 27%.
